Source: patent US20090252013A1, “HYDRAZIDE CHELATE COMPLEX COMPOUND, OPTICAL RECORDING MEDIUM USING THE COMPOUND AND RECORDING METHOD THEREOF” (Mitsubishi Chemical Corporation, priority 2006, published 2009)

Columns and labels:
[1] = Solubility test in coating solvent (2,2,3,3-tetrafluoropropanol); format: physicochemical; conditions: 20° C., result in words
Description: The dissolution is determined by whether or not residual crystals of the compound remain in the solvent when the compound and TFP are mixed with a predetermined concentration.
Then, the solution was dropped to filter paper (“No. 5C” quantitative filter paper manufactured by Toyo Roshi Kaisha), and dried at room temperature for 24 hours. It was visually observed whether or not crystal residues of undissolved components were present on the filter paper.

[2] = Light fastness test (xenon lamp) of dye recording layer; format: physicochemical; conditions: xenon lamp 0.55 W/m^2, 40 hours, 58° C., humidity 50%, absorbance at absorption maximum
Description: First, a solution containing a hydrazide chelate complex compound is applied over a substrate such that the film thickness after drying is about 50 nm, followed by drying, thus obtaining a layer containing the hydrazide chelate complex compound. The layer containing the resulting dye is irradiated with a xenon lamp (intensity 0.55 W/m^2) for a predetermined period of time under conditions at a temperature of 58° C. and a humidity of 50%. The absorbances at the absorption maximum wavelength before and after the irradiation are compared to obtain the dye residual ratio.
The resulting compound (A-6) was dissolved in 2,2,3,3-tetrafluoropropanol at a concentration of 1.0% by weight, and minute foreign particles were removed by filtration. Then, the resulting solution was dropped to an injection-molded polycarbonate substrate with a diameter of 120 mm and a thickness of 1.2 mm and coating was performed by spin coating (4,900 rpm), followed by drying at 80° C. for 30 minutes. […]
Under the conditions of temperature 58° C. and humidity 50%, a recording layer was irradiated with a xenon lamp at an irradiation intensity of 0.55 W/m^2 for 40 hours. Then, the dye residual ratio in the recording layer was determined on the basis of the absorbances before and after irradiation at the absorption maximum wavelength.

| Structure (SMILES) | solubility in a coating solvent at a concentration of 0.7% by weight [1] | solubility in a coating solvent at a concentration of 1.0% by weight [1] | dye residual ratio (after 40-hour light fastness test) [2] [%] |
| --- | --- | --- | --- |
| CN1C(=CC=[N+]2N=C(c3ccccc3)[O][Cu-2]23[O]C(c2ccccc2)=N[N+]3=CC=C2N(C)c3ccccc3C2(C)C)C(C)(C)c2ccccc21 (centres unmarked) [Compound A-2] | completely dissolved | the amount of insolubles was slight | – |
| CCOC(=O)CC1=N[N+](=CC=C2N(C)c3ccccc3C2(C)C)[Co-2]2([O]1)[O]C(CC(=O)OCC)=N[N+]2=CC=C1N(C)c2ccccc2C1(C)C (centres unmarked) [Compound A-6] | completely dissolved | completely dissolved | 90 |
| CCOC(=O)CC1=N[N+](=CC=C2N(CC)c3ccccc3C2(C)Cc2ccccc2)[Co-2]2([O]1)[O]C(CC(=O)OCC)=N[N+]2=CC=C1N(CC)c2ccccc2C1(C)Cc1ccccc1 (centres unmarked) [Compound A-11] | completely dissolved | completely dissolved | 91 |
| CCN1C(=CC=[N+]2N=C(c3ccccc3)[O][Co-2]23[O]C(c2ccccc2)=N[N+]3=CC=C2N(CC)c3ccc(OC)cc3C2(C)C)C(C)(C)c2cc(OC)ccc21 (centres unmarked) [Compound A-86] | completely dissolved | completely dissolved | – |
| CCN1C(=CC=[N+]2N=C(c3cccc(OC)c3)[O][Co-2]23[O]C(c2cccc(OC)c2)=N[N+]3=CC=C2N(CC)c3ccc(OC)cc3C2(C)C)C(C)(C)c2cc(OC)ccc21 (centres unmarked) [Compound A-87] | completely dissolved | completely dissolved | – |
| CCOc1ccccc1C1=N[N+](=CC=C2N(CC)c3c(ccc4ccccc34)C2(C)C)[Co-2]2([O]1)[O]C(c1ccccc1OCC)=N[N+]2=CC=C1N(CC)c2c(ccc3ccccc23)C1(C)C (centres unmarked) [Compound A-88] | completely dissolved | completely dissolved | – |
| CCN1C(=CC=[N+]2N=C(c3ccccc3OC)[O][Co-2]23[O]C(c2ccccc2OC)=N[N+]3=CC=C2N(CC)c3ccc(OC)cc3C2(C)Cc2ccccc2)C(C)(Cc2ccccc2)c2cc(OC)ccc21 (centres unmarked) [Compound A-150] | completely dissolved | completely dissolved | – |
| CCN1C(=CC=[N+]2N=C(c3ccc(C(=O)OC)cc3)[O][Co-2]23[O]C(c2ccc(C(=O)OC)cc2)=N[N+]3=CC=C2N(CC)c3ccc(OC)cc3C2(C)Cc2cccc(F)c2)C(C)(Cc2cccc(F)c2)c2cc(OC)ccc21 (centres unmarked) [Compound A-152] | completely dissolved | completely dissolved | – |
| CCN(CC)C(=O)c1ccc(C2=N[N+](=CC=C3N(CC)c4ccc(OC)cc4C3(C)Cc3ccccc3)[Co-2]3([O]2)[O]C(c2ccc(C(=O)N(CC)CC)cc2)=N[N+]3=CC=C2N(CC)c3ccc(OC)cc3C2(C)Cc2ccccc2)cc1 (centres unmarked) [Compound A-159] | completely dissolved | completely dissolved | – |
| CCN1C(=CC=[N+]2N=C(c3ccc(C(=O)OC)cc3)[O][Co-2]23[O]C(c2ccc(C(=O)OC)cc2)=N[N+]3=CC=C2N(CC)c3ccc(OC)cc3C2(C)Cc2ccccc2)C(C)(Cc2ccccc2)c2cc(OC)ccc21 (centres unmarked) [Compound A-186] | completely dissolved | completely dissolved | – |
| CCCN(CCC)S(=O)(=O)c1ccc(C2=N[N+](=CC=C3N(CC)c4ccc(OC)cc4C3(C)Cc3ccccc3)[Co-2]3([O]2)[O]C(c2ccc(S(=O)(=O)N(CCC)CCC)cc2)=N[N+]3=CC=C2N(CC)c3ccc(OC)cc3C2(C)Cc2ccccc2)cc1 (centres unmarked) [Compound A-211] | completely dissolved | completely dissolved | – |
| CCN1C(=CC=[N+]2N=C(c3cccc(OCCOC)c3)[O][Co-2]23[O]C(c2cccc(OCCOC)c2)=N[N+]3=CC=C2N(CC)c3ccc(OC)cc3C2(C)Cc2ccccc2)C(C)(Cc2ccccc2)c2cc(OC)ccc21 (centres unmarked) [Compound A-212] | completely dissolved | completely dissolved | – |
| CN(C)c1ccc(C2=N/[N+](=C/c3ccccn3)[Co-2]3([O]2)[O]C(c2ccc(N(C)C)cc2)=N/[N+]3=C/c2ccccn2)cc1 [Compound B-4, reference compound] | the amount of insolubles was large | the amount of insolubles was large | – |
| [CH2-][N+]1=C\c2n(C)c3ccccc3[n+]2[Co-3]23([O]C(c4ccc(N(C)C)cc4)=N[N+]2=Cc2n(C)c4ccccc4[n+]23)[O]/C(c2ccc(N(C)C)cc2)=N\1 [Compound B-5, reference compound] | the amount of insolubles was large | the amount of insolubles was large | – |
| [CH2-][N+](=C\C=C\c1ccc(N(CC)CC)cc1)/N=C(\[O][Co-]1[O]C(c2c(C)cc(C)cc2C)=N/[N+]1=C/C=C/c1ccc(N(CC)CC)cc1)c1c(C)cc(C)cc1C [Compound B-6, reference compound] | the amount of insolubles was large | the amount of insolubles was large | – |
